Measured values as given in patent US20110105623A1 (Biogenic Innovations, LLC, priority 2009, published 2011).

How the values were obtained:
[1] = test system: MRC-5 (Human lung fibroblasts) cells; experiment: Toxicity control for Pre-Treatment test; format: cell-based
Text: (§1) B. Toxicity Control for Pre-Treatment Test.

[2] = test system: Vero (African green monkey kidney) cells; experiment: Toxicity control for Pre-Treatment test; format: cell-based
Text: as §1

[3] = test system: Streptococcus Pneumonia (#10341); experiment: Bacterial viability by bioluminescent ATP assay
[4] = test system: Bifidobacterium bifidum ATCC #29521; experiment: Growth in MRS broth + L-cysteine fortified with MSM
Staphylococcus aureus = experiment: USP <51> AET in cosmetic cream/composition; format: cell-based; conditions: for Log Reduction from Initial Microorganism Inoculum: 14, 28 Days

Substance: Methylsulfonylmethane [MSM]
- Test Product Cytotoxicity (CPE) ([1]; MRC-5, 0.5%): 00
- Test Product Cytotoxicity (CPE) ([1]; MRC-5, 1%): 00
- Test Product Cytotoxicity (CPE) ([1]; MRC-5, 2%): 00
- Test Product Cytotoxicity (CPE) ([1]; MRC-5, 3%): 00
- Test Product Cytotoxicity (CPE) ([1]; MRC-5, 4%): 00
- Test Product Cytotoxicity (CPE) ([1]; MRC-5, 5%): 00
- Test Product Cytotoxicity (CPE) ([1]; MRC-5, 6%): 00
- Test Product Cytotoxicity (CPE) ([2]; 0.5%): 00
- Test Product Cytotoxicity (CPE) ([2]; 1%): 00
- Test Product Cytotoxicity (CPE) ([2]; 2%): 00
- Test Product Cytotoxicity (CPE) ([2]; 3%): 00
- Test Product Cytotoxicity (CPE) ([2]; 4%): 00
- Test Product Cytotoxicity (CPE) ([2]; 5%): 00
- Test Product Cytotoxicity (CPE) ([2]; 6%): 00
- Test Product Cytotoxicity (CPE) ([2]; 7%): 00
- IC50 [3]: 15.97%
- reduced viability by ([3]; 5% MSM alone): approximately 5%
- Log Growth of Bifidobacteruim bifidum in Media Fortified with MSM ([4]; 0.125% MSM, Hr 0): 1.12 logs
- Log Growth of Bifidobacteruim bifidum in Media Fortified with MSM ([4]; 0.125% MSM, Hr 8): 2.89 logs
- Log Growth of Bifidobacteruim bifidum in Media Fortified with MSM ([4]; 0.125% MSM, Hr 16): 7.85 logs
- Log Growth of Bifidobacteruim bifidum in Media Fortified with MSM ([4]; 0.125% MSM, Hr 24): 9.06 logs
- Log Growth of Bifidobacteruim bifidum in Media Fortified with MSM ([4]; 0.125% MSM, Hr 32): 11.45 logs
- Log Growth of Bifidobacteruim bifidum in Media Fortified with MSM ([4]; 0.125% MSM, Hr 40): 10.80 logs
- Log Growth of Bifidobacteruim bifidum in Media Fortified with MSM ([4]; 0.125% MSM, Hr 48): 8.22 logs
- Log Growth of Bifidobacteruim bifidum in Media Fortified with MSM ([4]; 0.125% MSM, Hr 56): 7.25 logs
- Log Growth of Bifidobacteruim bifidum in Media Fortified with MSM ([4]; 0.125% MSM, Hr 64): 8.86 logs
- Log Growth of Bifidobacteruim bifidum in Media Fortified with MSM ([4]; 0.125% MSM, Hr 72): 6.59 logs
- Log Growth of Bifidobacteruim bifidum in Media Fortified with MSM ([4]; 0.125% MSM, Hr 80): 9.12 logs
- Log Growth of Bifidobacteruim bifidum in Media Fortified with MSM ([4]; 0.125% MSM, Hr 88): 9.12 logs
- Log Growth of Bifidobacteruim bifidum in Media Fortified with MSM ([4]; 0.125% MSM, Hr 96): <6.00 logs
- Log Growth of Bifidobacteruim bifidum in Media Fortified with MSM ([4]; 0.5% MSM, Hr 0): 1.00 logs
- Log Growth of Bifidobacteruim bifidum in Media Fortified with MSM ([4]; 0.5% MSM, Hr 8): 2.84 logs
- Log Growth of Bifidobacteruim bifidum in Media Fortified with MSM ([4]; 0.5% MSM, Hr 16): 7.45 logs
- Log Growth of Bifidobacteruim bifidum in Media Fortified with MSM ([4]; 0.5% MSM, Hr 24): 8.81 logs
- Log Growth of Bifidobacteruim bifidum in Media Fortified with MSM ([4]; 0.5% MSM, Hr 32): 11.22 logs
- Log Growth of Bifidobacteruim bifidum in Media Fortified with MSM ([4]; 0.5% MSM, Hr 40): 12.09 logs
- Log Growth of Bifidobacteruim bifidum in Media Fortified with MSM ([4]; 0.5% MSM, Hr 48): 9.39 logs
- Log Growth of Bifidobacteruim bifidum in Media Fortified with MSM ([4]; 0.5% MSM, Hr 56): 9.51 logs
- Log Growth of Bifidobacteruim bifidum in Media Fortified with MSM ([4]; 0.5% MSM, Hr 64): 10.34 logs
- Log Growth of Bifidobacteruim bifidum in Media Fortified with MSM ([4]; 0.5% MSM, Hr 72): 8.35 logs
- Log Growth of Bifidobacteruim bifidum in Media Fortified with MSM ([4]; 0.5% MSM, Hr 80): 10.38 logs
- Log Growth of Bifidobacteruim bifidum in Media Fortified with MSM ([4]; 0.5% MSM, Hr 88): 9.70 logs
- Log Growth of Bifidobacteruim bifidum in Media Fortified with MSM ([4]; 0.5% MSM, Hr 96): 8.82 logs
- log growth ([4]; 0.5% MSM, hour 96): 8.82 logs
- log growth (estimated, outside the countable range) ([4]; 1% MSM, Hour 96): less than 6 logs
- Log Growth of Bifidobacteruim bifidum in Media Fortified with MSM ([4]; 1% MSM, Hr 0): 1.00 logs
- Log Growth of Bifidobacteruim bifidum in Media Fortified with MSM ([4]; 1% MSM, Hr 8): 2.73 logs
- Log Growth of Bifidobacteruim bifidum in Media Fortified with MSM ([4]; 1% MSM, Hr 16): 7.73 logs
- Log Growth of Bifidobacteruim bifidum in Media Fortified with MSM ([4]; 1% MSM, Hr 24): 8.81 logs
- Log Growth of Bifidobacteruim bifidum in Media Fortified with MSM ([4]; 1% MSM, Hr 32): 11.49 logs
- Log Growth of Bifidobacteruim bifidum in Media Fortified with MSM ([4]; 1% MSM, Hr 40): 11.19 logs
- Log Growth of Bifidobacteruim bifidum in Media Fortified with MSM ([4]; 1% MSM, Hr 48): 10.43 logs
- Log Growth of Bifidobacteruim bifidum in Media Fortified with MSM ([4]; 1% MSM, Hr 56): 10.57 logs
- Log Growth of Bifidobacteruim bifidum in Media Fortified with MSM ([4]; 1% MSM, Hr 64): 10.66 logs
- Log Growth of Bifidobacteruim bifidum in Media Fortified with MSM ([4]; 1% MSM, Hr 72): 8.34 logs
- Log Growth of Bifidobacteruim bifidum in Media Fortified with MSM ([4]; 1% MSM, Hr 80): 9.43 logs
- Log Growth of Bifidobacteruim bifidum in Media Fortified with MSM ([4]; 1% MSM, Hr 88): 10.41 logs
- Log Growth of Bifidobacteruim bifidum in Media Fortified with MSM ([4]; 1% MSM, Hr 96): <6.00 logs
- Log Growth of Bifidobacteruim bifidum in Media Fortified with MSM ([4]; 5% MSM, Hr 0): 1.12 logs
- Log Growth of Bifidobacteruim bifidum in Media Fortified with MSM ([4]; 5% MSM, Hr 8): 2.04 logs
- Log Growth of Bifidobacteruim bifidum in Media Fortified with MSM ([4]; 5% MSM, Hr 16): 6.10 logs
- Log Growth of Bifidobacteruim bifidum in Media Fortified with MSM ([4]; 5% MSM, Hr 24): 8.43 logs
- Log Growth of Bifidobacteruim bifidum in Media Fortified with MSM ([4]; 5% MSM, Hr 32): 11.13 logs
- Log Growth of Bifidobacteruim bifidum in Media Fortified with MSM ([4]; 5% MSM, Hr 40): 11.78 logs
- Log Growth of Bifidobacteruim bifidum in Media Fortified with MSM ([4]; 5% MSM, Hr 48): 10.70 logs
- Log Growth of Bifidobacteruim bifidum in Media Fortified with MSM ([4]; 5% MSM, Hr 56): 10.59 logs
- Log Growth of Bifidobacteruim bifidum in Media Fortified with MSM ([4]; 5% MSM, Hr 64): 14.32 logs
- Log Growth of Bifidobacteruim bifidum in Media Fortified with MSM ([4]; 5% MSM, Hr 72): 8.65 logs
- Log Growth of Bifidobacteruim bifidum in Media Fortified with MSM ([4]; 5% MSM, Hr 80): 12.20 logs
- Log Growth of Bifidobacteruim bifidum in Media Fortified with MSM ([4]; 5% MSM, Hr 88): 12.31 logs
- Log Growth of Bifidobacteruim bifidum in Media Fortified with MSM ([4]; 5% MSM, Hr 96): 9.60 logs
- Log Growth of Bifidobacteruim bifidum in Media Fortified with MSM ([4]; […] MSM, Hr 96): <6.00 logs
- maximum reached before the control ([4]; all MSM concentrations): 16 h
- AET microorganism count (Staphylococcus aureus; 10% MSM in cosmetic cream without preservative, 48 hrs-28 days): <10
- Log Reduction from Initial Microorganism Inoculum (Staphylococcus aureus; 10% MSM in preservative-free jojoba cream): 5.6 log
- Log Reduction from Initial Microorganism Inoculum (Staphylococcus aureus; 10% MSM, Composition #1): 5.7 log
